{
  "source": "paper PMC11385693",
  "about": "“Synthesis of ferrocenyl benzimidazole derivatives as novel anti-Toxoplasma gondii agents” (New Journal of Chemistry, 2024)",
  "key": {"[1]": {"test": "Aqueous stability studies (UV-vis monitoring, ESI-MS follow-up)", "format": "physicochemical", "conditions": "PBS pH 7.4, HEPES pH 7.0 and acetate buffer pH 4.6; 37 °C, 18 hours, 50 μM", "description": "The stability of complexes 14–17 in an aqueous environment was investigated. The stability experiments were performed in PBS (pH 7.4) and HEPES (pH 7.0) buffers, as well as in acidic acetate buffer (pH 4.6), by monitoring the UV-vis spectra of the compounds at 37 °C over an 18-hour period.\nTo further investigate the stability of 14, the PBS, HEPES and acetate buffer solutions were evaporated to dryness, and then analysed using electrospray ionisation mass spectrometry in the positive ionisation mode.\nPBS and HEPES buffers were prepared as described above. An acetate buffer with a concentration of […] and a pH of 4.60 was prepared by dissolving 5.40 g (65.83 mmol) of sodium acetate in 50 mL of dH2O. The resulting solution was then titrated to a pH of 4.60 with glacial acetic acid and made up to 100 mL with dH2O.\n1 mM stock solutions of the synthesised target compounds in MeOH were prepared. 1.90 mL of buffer (PBS, HEPES or acetate buffer) was pipetted into cuvettes followed by the addition 100 μL of test compound stock solutions, diluting them to a final concentration of 50 μM. The cuvettes were then stoppered, inverted to mix the solution, and placed in an Agilent Cary 3500 UV-vis spectrophotometer as fast as possible. Blank solutions in matched cuvettes were also prepared by adding 100 μL of MeOH to 1.9 mL of buffer. The solutions in all the cuvettes were stirred at 400 rpm ensure proper mixing. UV spectra were then recoded every 5 minutes for 18 hours with a spectral width of 200–1100 nm to monitor the stability of the test compounds."}, "T. gondii parasites": {"system": "T. gondii parasites", "test": "Determination of ROS formation by FACS (CellROX deep red)", "format": "cell-based, Toxoplasma gondii", "conditions": "66 μM, 18 hours, compared with untreated parasites", "description": "Once it had been established that two of the synthesised ferrocenyl benzimidazole derivatives were biologically active, their potential mode of action was explored. Given the presence of the ferrocenyl moiety, and the cyclic voltammetry results, it was of interest to investigate whether the compounds induce ROS, which may provide an explanation for their anti-parasitic activity. Thus, cells heavily infected with parasites were incubated with target compounds for 18 hours, before isolating the parasites and staining them with CellRox deep red reagent. CellRox is an oxidation sensitive dye which is non-fluorescent in its reduced state but fluoresces bright red at 665 nm upon being oxidised by ROS. FACS was then used to quantify CellROX parasite florescence.[56] Parasites were incubated with ferrocene carboxylic acid (FcCOOH), and untreated parasites were used as controls.\n6 cm dishes of host cells heavily infected with T. gondii were untreated or treated with 66 μM (second highest concentration used in growth inhibition assays) of test compounds for 18 hours. The dishes were then scratched and syringed, before filtering the solution into 10 mL falcon tubes to remove cell debris. The tubes were spun down for 10 minutes at 1500 rpm. The media was then removed from the tubes, and the pellet resuspended in 200 μL of PBS buffer. For each drug, 100 μL of the resuspended pellet was then placed into 2 FACS tubes, one which would then be stained with CellROX dye, and the other 100 μL of PBS added to act as an unstained control. A 1 : 125 dilution of CellROX stock solution was performed, and 100 μL of this solution added to the FACS tubes needing staining. Stained tubes were incubated at 37 °C for at least 15 min before analysis on a BD Celesta flow cytometer. Data was obtained using FACSDiva software with parasites being gated on forward scatter, side scatter and green fluorescence. FlowJo v10 software was used to plot the geometric mean of CellRox fluorescence from at least 5000 parasites on the Cy7 channel."}},
  "data": [
    {"smiles": "O=C(NCCn1cnc2cccnc21)[c-]1cccc1.[Fe+2].c1cc[cH-]c1", "note": "[Compound 17]", "values": [
      {"measurement": "Change of UV-vis spectrum over time (aqueous stability)", "setting": "[1]", "result": "remained unchanged"},
      {"measurement": "ROS formation in treated parasites (CellRox red fluorescence)", "setting": "T. gondii parasites", "result": "triggered the formation of ROS"}
    ]}
  ]
}
